Literature values in publication PMC4358366, “Identification of ‘erasers’ for lysine crotonylated histone marks using a chemical proteomics approach” (eLife, 2014).
“Also recorded” adds a separate entry of the source. Where no end group is shown, it is not given here. The star is where a group is joined. Crotonyl(E) = C/C=C/C(=O)*

How the values were obtained:
Settings in all cases: H3K9Cr peptide, residues 5–13; [32P]-NAD TLC; ref Feldman et al., 2013; cited from earlier work
[1] = tested on: Sirt1
Source text: (§1) Lysine crotonylation (Kcr) is a newly discovered histone PTM that is specifically enriched at active gene promoters and potential enhancers in mammalian cell genomes ([Tan et al., 2011]). […] However, further mechanistic and functional studies of histone Kcr have been limited by a lack of knowledge of the enzymes that catalyze the addition or removal of Kcr in cells. In a systematic screening of the activities of the ... || Siruins were initially recognized as NAD-dependent deacetylases ([Imai et al., 2000]; [Landry et al., 2000]; [Sauve et al., 2006]). […] In this study ...

[2] = tested on: Sirt2
Source text: as §1

[3] = tested on: Sirt3
Source text: Siruins were initially recognized as NAD-dependent deacetylases ([Imai et al., 2000]; [Landry et al., 2000]; [Sauve et al., 2006]). […] In this study ...

histone H3K9Cr peptide: H3K9Cr peptide of Denu's study, residues 5–13 of histone H3 (QTARK(Crotonyl(E))STGG; UniProt P68431 6-14, looked up, fragment)
decrotonylase activity of Sirt1 (literature) [1]: exhibited decrotonylase activity; also recorded: can catalyze the removal of a crotonyl group | decrotonylase activity of Sirt2 (literature) [2]: exhibited decrotonylase activity; also recorded: can catalyze the removal of a crotonyl group | decrotonylase activity of Sirt3 (literature) [3]: totally inactive
